From the SangsterLogP compilation

Structure (SMILES)	logP
NC(=O)C(c1ccccc1)c1ccccc1	2.11
COc1ccc(C(=O)Nc2nc3ccccc3[nH]2)cc1	2.89
CC(C)Nc1ccccc1N	1.65
CC(C)NC(=O)Nc1ccccc1	1.84
NC(=O)C(C(N)=O)c1ccccc1	-0.07
c1ccc(CNc2nc3ccccc3[nH]2)cc1	2.92
CC(=O)Nc1ccccc1N	0.13

Other lines, results leading:

logP	Structure (SMILES)
4.58	O=C(CCl)Nc1sc2c(c1C(=O)c1ccccc1)CCCC2
2.97	CNc1ccccc1C(=O)OC
0.8	CNC(=O)Nc1ccccn1
2.58	CCc1ccccc1NC
1.1	OCCNc1nc2ccccc2[nH]1
2.68	CC(C)NC(=O)c1ccc2ccccc2c1
2.13	CC(C)NC(=O)c1cc2ccccc2oc1=O
3.1	O=C(Nc1ccccc1)Nc1ccccn1
2.19	CCC(=O)NC(=O)Nc1ccccc1
